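How tested: cells in 96-well plates exposed to compound for 48 hours at five concentrations. GI50 = concentration required for 50% inhibition of growth. At the TGI there is no net growth.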 Where a SMILES comes first, the peptide text is derived from it. [ ]: non-standard residue; d: D form. ξ: configuration not given here. ξThz(5,5-Me2) = CC1(C)SCNC1C(=O)O
Key:
Assay in all cases: growth of human tumour cells (NCI), 48 h
[1] = system: DU-145 prostate
[2] = system: OVCAR-4 ovarian
[3] = system: OVCAR-3 ovarian
[4] = system: HOP-62 NSCLC
[5] = system: A549 NSCLC
[6] = system: PC-3 prostate
[7] = system: UACC-257 melanoma
[8] = system: HL-60(TB) leukemia
[9] = system: CAKI-1 renal
[10] = system: OVCAR-8 ovarian
[11] = system: SW-620 colon
[12] = system: SNB-19 CNS
[13] = system: COLO 205 colon
[14] = system: SF-539 CNS
[15] = system: SF-295 CNS
[16] = system: NCI-H460 lung
[17] = system: SNB-75 CNS
[18] = system: UACC-62 melanoma
[19] = system: RPMI-8226 leukemia
[20] = system: SN12C renal
[21] = system: EKVX NSCLC
[22] = system: SK-MEL-28 melanoma
[23] = system: NCI-H226 lung
[24] = system: M14 melanoma
[25] = system: HCT-116 colon
[26] = system: SF-268 CNS
[27] = system: 786-0 renal
[28] = system: NCI-H23 lung
[29] = system: TK-10 renal
[30] = system: ACHN renal
[31] = system: HCT-15 colon
[32] = system: MALME-3M melanoma
[33] = system: LOX IMVI melanoma
[34] = system: U251 CNS
[35] = system: A498 renal
[36] = system: MDA-MB-231 breast
[37] = system: NCI/ADR-RES ovarian
[38] = system: OVCAR-5 ovarian
[39] = system: SK-OV-3 ovarian
[40] = system: HCC-2998 colon
[41] = system: MDA-MB-435
[42] = system: KM12 colon
[43] = system: NCI-H522 lung
[44] = system: MCF7 breast
[45] = system: HOP-92 NSCLC
[46] = system: UO-31 renal
[47] = system: T-47D breast
[48] = system: BT-549 breast
[49] = system: HT29 colon
[50] = system: IGROV1 ovarian
[51] = system: SK-MEL-5 melanoma

## COc1cc(C=C2c3ccccc3C(=O)c3ccccc32)ccc1OCCCCOc1cc2c(cc1OC)C(=O)N1CCCC1C=N2 (stereo unspecified)
[1]
  GI50: 208 nM
  TGI: 479 nM
[2]
  GI50: 456 nM
  TGI: 8450 nM
[3]
  GI50: 200 nM
  TGI: 458 nM
[4]
  GI50: 579 nM
  TGI: 1310 nM
[5]
  GI50: 785 nM
  TGI: 3220 nM
[6]
  GI50: 274 nM
  TGI: 3560 nM
[7]
  GI50: 1090 nM
  TGI: 2550 nM
[8]
  GI50: 142 nM
  TGI: 389 nM
[9]
  GI50: 314 nM
  TGI: 1020 nM
[10]
  GI50: 310 nM
  TGI: 1260 nM
[11]
  GI50: 214 nM
  TGI: 501 nM
[12]
  GI50: 1020 nM
  TGI: 2560 nM
[13]
  GI50: 469 nM
  TGI: 1670 nM
[14]
  GI50: 352 nM
  TGI: 1390 nM
[15]
  GI50: 765 nM
  TGI: 2340 nM
[16]
  GI50: 703 nM
  TGI: 2350 nM
[17]
  GI50: 391 nM
  TGI: 1800 nM
[18]
  GI50: 407 nM
  TGI: 1470 nM
[19]
  GI50: 101 nM
  TGI: 354 nM
[20]
  GI50: 458 nM
  TGI: 1880 nM
[21]
  GI50: 1140 nM
  TGI: 3170 nM
[22]
  GI50: 192 nM
  TGI: 430 nM
[23]
  GI50: 1260 nM
  TGI: 3130 nM
[24]
  GI50: 440 nM
  TGI: 1470 nM
[25]
  GI50: 174 nM
  TGI: 409 nM
[26]
  GI50: 242 nM
  TGI: 726 nM
[27]
  GI50: 448 nM
  TGI: 1110 nM
[28]
  GI50: 337 nM
  TGI: 1490 nM
[29]
  GI50: 302 nM
  TGI: 896 nM
[30]
  GI50: 525 nM
  TGI: 1690 nM
[31]
  GI50: 377 nM
  TGI: 1500 nM
[32]
  GI50: 399 nM
  TGI: 1590 nM
[33]
  GI50: 279 nM
  TGI: 890 nM
[34]
  GI50: 249 nM
  TGI: 704 nM
[35]
  GI50: 454 nM
  TGI: 1610 nM
[36]
  GI50: 603 nM
  TGI: 11800 nM
[37]
  GI50: 1620 nM
  TGI: 8830 nM
[38]
  GI50: 581 nM
  TGI: 1450 nM
[39]
  GI50: 1410 nM
  TGI: 3890 nM
[40]
  GI50: 342 nM
  TGI: 816 nM
[41]
  GI50: 227 nM
  TGI: 601 nM
[42]
  GI50: 227 nM
  TGI: 608 nM
[43]
  GI50: 612 nM
  TGI: 9950 nM
[44]
  GI50: 304 nM
  TGI: 1640 nM
[45]
  GI50: 244 nM
  TGI: 1050 nM
[46]
  GI50: 656 nM
  TGI: 2090 nM
[47]
  GI50: 356 nM
  TGI: 1780 nM
[48]
  GI50: 91.5 nM
  TGI: 542 nM
[49]
  GI50: 278 nM
  TGI: 1460 nM
[50]
  GI50: 321 nM
  TGI: 804 nM
[51]
  GI50: 782 nM
  TGI: 2050 nM

## CSCC[C@H](NC(=O)[C@H](CC(C)C)NC(=O)[C@H](Cc1c[nH]cn1)NC(=O)CNC(=O)C1N(C(=O)[C@@H](C)NC(=O)[C@H](Cc2c[nH]c3ccccc23)NC(=O)[C@H](CCC(N)=O)NC(=O)[C@@H](N)CC(N)=O)CSC1(C)C)C(N)=O (stereo partly specified) (H-NQW[dA][ξThz(5,5-Me2)]GHLM-NH2)
[7]
  TGI: > 25000 nM
[23]
  TGI: > 25000 nM
[28]
  TGI: > 25000 nM
[45]
  TGI: > 25000 nM

From PubChem BioAssay (NCI)
